Measured values from PubChem BioAssay (NCI).
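How tested: cells in 96-well plates exposed to compound for 48 hours at five concentrations. At the GI50, growth is halved. TGI: total growth inhibition.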

Tests used:
Test in all cases: NCI anticancer screen, dose series, 48 h
HCT-116 colon = test system: HCT-116 colon
OVCAR-8 ovarian = test system: OVCAR-8 ovarian
SF-268 CNS = test system: SF-268 CNS
RXF 393 renal = test system: RXF 393 renal
IGROV1 ovarian = test system: IGROV1 ovarian
HOP-62 NSCLC = test system: HOP-62 NSCLC
A549 NSCLC = test system: A549 NSCLC
HOP-92 NSCLC = test system: HOP-92 NSCLC
NCI-H460 lung = test system: NCI-H460 lung
CAKI-1 renal = test system: CAKI-1 renal
HCC-2998 colon = test system: HCC-2998 colon
T-47D breast = test system: T-47D breast
MALME-3M melanoma = test system: MALME-3M melanoma
SK-MEL-5 melanoma = test system: SK-MEL-5 melanoma
HCT-15 colon = test system: HCT-15 colon
A498 renal = test system: A498 renal
SR leukemia = test system: SR leukemia
NCI-H522 lung = test system: NCI-H522 lung
UACC-257 melanoma = test system: UACC-257 melanoma
PC-3 prostate = test system: PC-3 prostate
HL-60(TB) leukemia = test system: HL-60(TB) leukemia
SK-MEL-2 melanoma = test system: SK-MEL-2 melanoma
MCF7 breast = test system: MCF7 breast
SW-620 colon = test system: SW-620 colon
SK-MEL-28 melanoma = test system: SK-MEL-28 melanoma
LOX IMVI melanoma = test system: LOX IMVI melanoma
SNB-75 CNS = test system: SNB-75 CNS
NCI/ADR-RES ovarian = test system: NCI/ADR-RES ovarian
NCI-H226 lung = test system: NCI-H226 lung
MOLT-4 leukemia = test system: MOLT-4 leukemia
BT-549 breast = test system: BT-549 breast
SF-295 CNS = test system: SF-295 CNS
UACC-62 melanoma = test system: UACC-62 melanoma
OVCAR-5 ovarian = test system: OVCAR-5 ovarian
SF-539 CNS = test system: SF-539 CNS
UO-31 renal = test system: UO-31 renal
RPMI-8226 leukemia = test system: RPMI-8226 leukemia
TK-10 renal = test system: TK-10 renal
SK-OV-3 ovarian = test system: SK-OV-3 ovarian
HS 578T breast = test system: HS 578T breast
HT29 colon = test system: HT29 colon
DU-145 prostate = test system: DU-145 prostate
EKVX NSCLC = test system: EKVX NSCLC
786-0 renal = test system: 786-0 renal
ACHN renal = test system: ACHN renal
MDA-MB-435 = test system: MDA-MB-435
MDA-MB-231 breast = test system: MDA-MB-231 breast
K-562 leukemia = test system: K-562 leukemia
U251 CNS = test system: U251 CNS
KM12 colon = test system: KM12 colon
NCI-H23 lung = test system: NCI-H23 lung
SNB-19 CNS = test system: SNB-19 CNS
COLO 205 colon = test system: COLO 205 colon
M14 melanoma = test system: M14 melanoma
OVCAR-4 ovarian = test system: OVCAR-4 ovarian
SN12C renal = test system: SN12C renal
CCRF-CEM leukemia = test system: CCRF-CEM leukemia

With `Cn1ccnc1C(=O)/C=C/c1ccc(CNC(=O)c2ccc(Cl)cc2)cc1` the GI50 (HCT-116 colon) was 2.28 µM, the TGI (HCT-116 colon) was 5.05 µM and the GI50 (OVCAR-8 ovarian) was 4.15 µM. For the same compound, the TGI (OVCAR-8 ovarian) was over 14.3 µM, the GI50 (SF-268 CNS) was 2.38 µM and the TGI (SF-268 CNS) was 6.27 µM. The GI50 (RXF 393 renal) was 2.07 µM, the TGI (RXF 393 renal) was 4.56 µM and the GI50 (IGROV1 ovarian) was 2.62 µM. For the same compound, the TGI (IGROV1 ovarian) was 7.73 µM, the GI50 (HOP-62 NSCLC) was 2.43 µM and the TGI (HOP-62 NSCLC) was 5.96 µM. For the same compound, the GI50 (A549 NSCLC) was 3.6 µM, the TGI (A549 NSCLC) was over 14.3 µM and the GI50 (HOP-92 NSCLC) was 3.13 µM. For the same compound, the TGI (HOP-92 NSCLC) was 12.9 µM, the GI50 (NCI-H460 lung) was 2.61 µM and the TGI (NCI-H460 lung) was 6.31 µM. For the same compound, the GI50 (CAKI-1 renal) was 3.34 µM, the TGI (CAKI-1 renal) was over 14.3 µM and the GI50 (HCC-2998 colon) was 2.26 µM. For the same compound, the TGI (HCC-2998 colon) was 4.5 µM, the GI50 (T-47D breast) was 3 µM and the TGI (T-47D breast) was over 14.3 µM. It also gave a GI50 (MALME-3M melanoma) of 2.84 µM, a TGI (MALME-3M melanoma) of 8.12 µM and a GI50 (SK-MEL-5 melanoma) of 4.98 µM. For the same compound, the TGI (SK-MEL-5 melanoma) was over 14.3 µM, the GI50 (HCT-15 colon) was 1.61 µM and the TGI (HCT-15 colon) was 5.39 µM. It also gave a GI50 (A498 renal) of 2.18 µM, a TGI (A498 renal) of 4.17 µM and a GI50 (SR leukemia) of 0.626 µM. It also gave a TGI (SR leukemia) of over 14.3 µM, a GI50 (NCI-H522 lung) of 2.47 µM and a TGI (NCI-H522 lung) of 4.83 µM. The GI50 (UACC-257 melanoma) was 3.12 µM, the TGI (UACC-257 melanoma) was 10.2 µM and the GI50 (PC-3 prostate) was 2.8 µM. For the same compound, the TGI (PC-3 prostate) was 7.18 µM, the GI50 (HL-60(TB) leukemia) was 3.4 µM and the TGI (HL-60(TB) leukemia) was 11.6 µM. It also gave a GI50 (SK-MEL-2 melanoma) of 3.42 µM, a TGI (SK-MEL-2 melanoma) of 10.8 µM and a GI50 (MCF7 breast) of 1.75 µM. It also gave a TGI (MCF7 breast) of 6.3 µM, a GI50 (SW-620 colon) of 2.55 µM and a TGI (SW-620 colon) of 5.88 µM. The GI50 (SK-MEL-28 melanoma) was 2.53 µM, the TGI (SK-MEL-28 melanoma) was 5.31 µM and the GI50 (LOX IMVI melanoma) was 0.962 µM. It also gave a TGI (LOX IMVI melanoma) of 2.96 µM, a GI50 (SNB-75 CNS) of 2.41 µM and a TGI (SNB-75 CNS) of 10.3 µM. For the same compound, the GI50 (NCI/ADR-RES ovarian) was 4.03 µM, the TGI (NCI/ADR-RES ovarian) was over 14.3 µM and the GI50 (NCI-H226 lung) was 3.96 µM. For the same compound, the TGI (NCI-H226 lung) was over 14.3 µM, the GI50 (MOLT-4 leukemia) was 3.82 µM and the TGI (MOLT-4 leukemia) was 12.4 µM. The GI50 (BT-549 breast) was 2.23 µM, the TGI (BT-549 breast) was 4.65 µM and the GI50 (SF-295 CNS) was 2.63 µM. For the same compound, the TGI (SF-295 CNS) was 6.51 µM, the GI50 (UACC-62 melanoma) was 2.41 µM and the TGI (UACC-62 melanoma) was 5.1 µM. It also gave a GI50 (OVCAR-5 ovarian) of 2.52 µM, a TGI (OVCAR-5 ovarian) of 5.73 µM and a GI50 (SF-539 CNS) of 2.06 µM. The TGI (SF-539 CNS) was 4.12 µM, the GI50 (UO-31 renal) was 1.84 µM and the TGI (UO-31 renal) was 3.74 µM. For the same compound, the GI50 (RPMI-8226 leukemia) was 1.82 µM, the TGI (RPMI-8226 leukemia) was 6.42 µM and the GI50 (TK-10 renal) was 3.92 µM. The TGI (TK-10 renal) was 13 µM, the GI50 (SK-OV-3 ovarian) was 5.05 µM and the TGI (SK-OV-3 ovarian) was over 14.3 µM. For the same compound, the GI50 (HS 578T breast) was 4.3 µM, the TGI (HS 578T breast) was over 14.3 µM and the GI50 (HT29 colon) was 2.39 µM. For the same compound, the TGI (HT29 colon) was 5.13 µM, the GI50 (DU-145 prostate) was 2.2 µM and the TGI (DU-145 prostate) was 4.23 µM. The GI50 (EKVX NSCLC) was 3.71 µM, the TGI (EKVX NSCLC) was over 14.3 µM and the GI50 (786-0 renal) was 2.58 µM. The TGI (786-0 renal) was 5.76 µM, the GI50 (ACHN renal) was 2.98 µM and the TGI (ACHN renal) was 7.42 µM. For the same compound, the GI50 (MDA-MB-435) was 2.73 µM, the TGI (MDA-MB-435) was 6.37 µM and the GI50 (MDA-MB-231 breast) was 3.36 µM. The TGI (MDA-MB-231 breast) was 14.2 µM, the GI50 (K-562 leukemia) was 2.2 µM and the TGI (K-562 leukemia) was over 14.3 µM. It also gave a GI50 (U251 CNS) of 1.72 µM, a TGI (U251 CNS) of 4.08 µM and a GI50 (KM12 colon) of 2.13 µM. The TGI (KM12 colon) was 4.19 µM, the GI50 (NCI-H23 lung) was 2.68 µM and the TGI (NCI-H23 lung) was 6.47 µM. It also gave a GI50 (SNB-19 CNS) of 2.15 µM, a TGI (SNB-19 CNS) of 5.37 µM and a GI50 (COLO 205 colon) of 2.45 µM. It also gave a TGI (COLO 205 colon) of 6.05 µM, a GI50 (M14 melanoma) of 2.78 µM and a TGI (M14 melanoma) of 7 µM. It also gave a GI50 (OVCAR-4 ovarian) of 3.44 µM, a TGI (OVCAR-4 ovarian) of over 14.3 µM and a GI50 (SN12C renal) of 3.29 µM. For the same compound, the TGI (SN12C renal) was 11.4 µM, the GI50 (CCRF-CEM leukemia) was 3.38 µM and the TGI (CCRF-CEM leukemia) was over 14.3 µM.
